# Test results: ChEMBL document CHEMBL1201862, “PubChem BioAssay data set” (2004)
#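 Step 1: Grow cells in 96-well plates. Step 2: Expose to compound for 48 hours at 5 concentrations. Step 3: Interpolate endpoints linearly; if unreached, use highest concentration. GI50 is the concentration that inhibits growth by half.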 Active and inactive are the calls of the source. Rule as the data show it: active = GI50 up to about 1.1 µM and inactive = higher.
# Columns and labels:
# Assay in all cases: NCI tumour cell line growth inhibition, 48 h
# SK-OV-3 = test system: SK-OV-3
# NCI-H522 = test system: NCI-H522
# HL-60 = test system: HL-60
# CCRF-CEM = test system: CCRF-CEM
# PC-3 = test system: PC-3
# NCI-H226 = test system: NCI-H226
# NCI-H460 = test system: NCI-H460
# HOP-62 = test system: HOP-62
# SW-620 = test system: SW-620
# OVCAR-4 = test system: OVCAR-4
# M14 = test system: M14
# U-251 = test system: U-251
# IGROV-1 = test system: IGROV-1
# HCC 2998 = test system: HCC 2998
# SK-MEL-28 = test system: SK-MEL-28
# NCI-H23 = test system: NCI-H23
# LOX IMVI = test system: LOX IMVI
# TK-10 = test system: TK-10
# SK-MEL-2 = test system: SK-MEL-2
# COLO 205 = test system: COLO 205
Compound,GI50 (SK-OV-3),GI50 (NCI-H522),GI50 (HL-60),GI50 (CCRF-CEM),GI50 (PC-3),GI50 (NCI-H226),GI50 (NCI-H460),GI50 (HOP-62),GI50 (SW-620),GI50 (OVCAR-4),GI50 (M14),GI50 (U-251),GI50 (IGROV-1),GI50 (HCC 2998),GI50 (SK-MEL-28),GI50 (NCI-H23),GI50 (LOX IMVI),GI50 (TK-10),GI50 (SK-MEL-2),GI50 (COLO 205)
Fc1c(F)c(F)c(CSc2nc3ccccc3[nH]2)c(F)c1F,> 100 µM (inactive),> 100 µM (inactive),> 100 µM (inactive),> 100 µM (inactive),> 100 µM (inactive),> 100 µM (inactive),> 100 µM (inactive),> 100 µM (inactive),> 100 µM (inactive),> 100 µM (inactive),> 100 µM (inactive),> 100 µM (inactive),> 100 µM (inactive),> 100 µM (inactive),> 100 µM (inactive),> 100 µM (inactive),> 100 µM (inactive),> 100 µM (inactive),> 100 µM (inactive),> 100 µM (inactive)
CCOC(=O)CNC(=O)C(CCC(=O)N(C)O)NC(=O)CCC(N)C(=O)O (stereo not given),> 100 µM (inactive),> 100 µM (inactive),> 100 µM (inactive),> 100 µM (inactive),> 100 µM (inactive),> 100 µM (inactive),> 100 µM (inactive),> 100 µM (inactive),> 100 µM (inactive),> 100 µM (inactive),> 100 µM (inactive),> 100 µM (inactive),> 100 µM (inactive),> 100 µM (inactive),> 100 µM (inactive),> 100 µM (inactive),> 100 µM (inactive),> 100 µM (inactive),> 100 µM (inactive),> 100 µM (inactive)
COc1ccc([C@H]2C=[N+]([O-])O[C@H](OC3CCCC3)[C@@H]2OC(C)=O)cc1OC,> 100 µM (inactive),5.66 µM (inactive),18.5 µM (inactive),0.098 µM (active),44.8 µM (inactive),47.6 µM (inactive),43.9 µM (inactive),72.1 µM (inactive),19.8 µM (inactive),33.6 µM (inactive),21.4 µM (inactive),35 µM (inactive),18.3 µM (inactive),13.2 µM (inactive),20.8 µM (inactive),25.6 µM (inactive),15.4 µM (inactive),23.1 µM (inactive),69.3 µM (inactive),15.9 µM (inactive)
O=C(NNC(=S)NCc1ccccc1)C12CC3CC(CC(C3)C1)C2,> 100 µM (inactive),> 100 µM (inactive),22.4 µM (inactive),24.3 µM (inactive),25.8 µM (inactive),> 100 µM (inactive),36.3 µM (inactive),75.2 µM (inactive),48 µM (inactive),76.6 µM (inactive),74.3 µM (inactive),49.8 µM (inactive),> 100 µM (inactive),69.8 µM (inactive),67.6 µM (inactive),74.6 µM (inactive),35.4 µM (inactive),> 100 µM (inactive),99.1 µM (inactive),20.4 µM (inactive)
O=c1[nH]c2c(c(=O)[nH]1)SSC2,21.4 µM (inactive),17.3 µM (inactive),1.99 µM (inactive),0.46 µM (active),24 µM (inactive),19.4 µM (inactive),11.7 µM (inactive),10.6 µM (inactive),7.19 µM (inactive),17.3 µM (inactive),2 µM (inactive),11.8 µM (inactive),22.3 µM (inactive),16.2 µM (inactive),5.79 µM (inactive),12.7 µM (inactive),1.34 µM (inactive),16 µM (inactive),6.44 µM (inactive),21.4 µM (inactive)
Cc1c(Cl)cccc1NC(=O)/C=C/c1ccccc1,> 100 µM (inactive),> 100 µM (inactive),> 100 µM (inactive),> 100 µM (inactive),> 100 µM (inactive),60.1 µM (inactive),> 100 µM (inactive),> 100 µM (inactive),> 100 µM (inactive),> 100 µM (inactive),> 100 µM (inactive),> 100 µM (inactive),> 100 µM (inactive),> 100 µM (inactive),88.5 µM (inactive),> 100 µM (inactive),> 100 µM (inactive),> 100 µM (inactive),> 100 µM (inactive),> 100 µM (inactive)
COc1nc(N)nc2nc[nH]c12,129 µM (inactive),440 µM (inactive),383 µM (inactive),331 µM (inactive),466 µM (inactive),318 µM (inactive),430 µM (inactive),172 µM (inactive),> 500 µM (inactive),479 µM (inactive),478 µM (inactive),488 µM (inactive),239 µM (inactive),> 500 µM (inactive),> 419 µM (inactive),> 500 µM (inactive),381 µM (inactive),242 µM (inactive),460 µM (inactive),393 µM (inactive)
C=CCNC1=C2C[C@@H](C)C[C@H](OC)[C@H](O)[C@@H](C)/C=C(\C)[C@H](OC(N)=O)[C@@H](OC)/C=C\C=C(/C)C(=O)NC(=CC1=O)C2=O [TANESPIMYCIN],0.0262 µM (active),0.0431 µM (active),0.0489 µM (active),0.493 µM (active),0.047 µM (active),4.49 µM (inactive),0.0136 µM (active),0.15 µM (active),0.279 µM (active),4.39 µM (inactive),0.0214 µM (active),0.158 µM (active),0.0331 µM (active),0.0664 µM (active),0.396 µM (active),0.014 µM (active),0.0186 µM (active),0.0881 µM (active),0.292 µM (active),0.0124 µM (active)
